No end group written: not given here.

Experimental findings from patent US20080261970A1, “Sufonamides and Uses Thereof” (ELIXIR PHARMACEUTICALS, INC., priority 2004, published 2008) are described below.

In the assay the test system is mice. Put plainly: fast refeed (fast-refeeding) assay. Format: in vivo. The method, then:
In vivo assays. Exemplary in vivo assays include the fast-refeeding assay described in Example 1 and as follows.
Food is removed at 6 pm for an overnight (˜16 hour) fast. Beginning at 10 am on the next morning, mice are administered with either vehicle (e.g., saline+acetic acid, pH=5) or the compound of interest. Mice are then returned to their home cages and pre-weighed food (approximately 90 grams) is immediately returned to the food hoppers in each cage. The weight of the food remaining in the food hoppers is measured at 30 minutes, 1 hour, 2 hours, and 4 hours post compound/vehicle administration. Final body weights are then recorded for the mice.

Take “substance P (RPKPQQFFGLM; ends and bridges not checked; UniProt P20366 58-68, looked up)”: the feeding activity result is on record as “alters feeding activity”.
